Measured values: patent publication US4672036A, “Pure cultures of Kibdelsporangium aridum Shearer gen. nov., sp. nov. ATCC 39323 and mutants thereof” (SmithKline Beckman Corporation, priority 1985, dated 1987)
Values after ≈ are worked out from the molar mass of the structure shown. Values joined by “and” are separate entries in the source; they are usually repeats but may differ in a detail not shown here. Equal entries are not always repeated. Where two headings read alike, the source gives them in different places.

Legend:
Strep. faecilis HH34358 = assay type: cell-based
[1] = system: Kleb. pneumoniae 4200 (SK & F 798); assay type: cell-based; conditions: Klebsiella pneumoniae
[2] = system: Serratia marcesens ATCC 13880; assay type: cell-based; conditions: Serratia, ATCC13880
[3] = system: Enterobacter cloacae HH31254; assay type: cell-based; conditions: Enterobacter cloacae, HH31254
[4] = system: Staph. epidermidis SK & F 2479; assay type: cell-based; conditions: Staphylococcus epidermidis
[5] = system: Staph. epidermidis SK & F 651; assay type: cell-based; conditions: Staphylococcus epidermidis
[6] = system: Staph. aureus SK & F 1761; assay type: cell-based; conditions: Staphylococcus aureus
[7] = system: Staph. aureus SK & F 2677; assay type: cell-based; conditions: Staphylococcus aureus
[8] = system: Staph. aureus SK & F 2682; assay type: cell-based; conditions: Staphylococcus aureus
[9] = system: Staph. aureus SK & F 2776; assay type: cell-based; conditions: Staphylococcus aureus
[10] = system: Staph. aureus SK & F 2777; assay type: cell-based; conditions: Staphylococcus aureus
[11] = system: Staph. aureus SK & F 2615; assay type: cell-based; conditions: Staphylococcus aureus
Staph. aureus SK & F 675 = assay type: cell-based; conditions: Staphylococcus aureus
[12] = system: Staph. aureus SK & F 2612; assay type: cell-based; conditions: Staphylococcus aureus
[13] = system: Staph. aureus SK & F 2620; assay type: cell-based; conditions: Staphylococcus aureus
[14] = system: B. thetaiotamicron SK & F 3089; assay type: cell-based
[15] = system: Staph. epidermidis SK & F 2683; assay type: cell-based; conditions: Staphylococcus epidermidis
rumen in vitro model = rumen in vitro model (growth promotant activity); design: species or system steer
Protocol: The protocol for the rumen in vitro model is analogous to the protocol for the swine in vitro model with the following modifications:
(1) A 400 kg steer is surgically prepared with a rumen cannula.
(2) The animal is fed one time a day with the following ration:
(3) Manipulation of VFA production is described as the production ratio of propionate as a percentage of total VFA produced.
(4) Sampling of the material, via the cannula, is at 120 minutes post feeding.

K. aridum = assay: susceptibility of K. aridum to antibiotics, disk diffusion method; assay type: cell-based, Kibdelosporangium aridum; conditions: disk 30 μg
Protocol: Susceptibility of K. aridum to antibiotics was examined by placing BBL susceptibility disks on nutrient agar plates seeded with K. aridum as an overlay. Diameters of the zones of inhibition were measured after incubation for one week at 28° C.
Chlortetracycline ([…]) produced 18 mm zones of inhibition; tetracycline (5 μg) 11-12 mm zones; rifampin (5 μg) 11-15 mm zones; novobiocin (5 μg) 27-28 mm zones. All zones of inhibition contained at least a few resistant colonies.

CN[C@H](CC(C)C)C(=O)N[C@H]1C(=O)N[C@@H](CC(N)=O)C(=O)N[C@H]2C(=O)N[C@H]3C(=O)N[C@H](C(=O)N[C@H](C(=O)O)c4cc(O)cc(O)c4-c4cc3ccc4O)[C@H](O)c3ccc(c(Cl)c3)Oc3cc2cc(c3O[C@@H]2O[C@H](CO)[C@@H](O)[C@H](O)[C@H]2O[C@H]2C[C@](C)(N)[C@H](O)[C@H](C)O2)Oc2ccc(cc2Cl)[C@H]1O [Vancomycin, reference compound]
MIC (Strep. faecilis HH34358): 3.1 µg/mL (≈ 2.14 µM) | MIC (Strep. faecilis HH34358; Enterococcus faecalis, HH34358): 6.3 µg/mL (≈ 4.35 µM) | MIC [1]: > 100 µg/mL | MIC [2]: > 100 µg/mL | MIC [3]: > 100 µg/mL | MIC ([4]; Table A): 1.6 µg/mL (≈ 1.1 µM) | MIC ([4]; Table E): 6.3 µg/mL (≈ 4.35 µM) | MIC ([5]; Table A): 1.6 µg/mL (≈ 1.1 µM) | MIC ([5]; Table E): 6.3 µg/mL (≈ 4.35 µM) | MIC [6]: 1.6 µg/mL (≈ 1.1 µM) | MIC [7]: 1.6 µg/mL (≈ 1.1 µM) | MIC [8]: 1.6 µg/mL (≈ 1.1 µM) | MIC [9]: 1.6 µg/mL (≈ 1.1 µM) | MIC [10]: 0.8 µg/mL (≈ 0.552 µM) | MIC [11]: 3.1 µg/mL (≈ 2.14 µM) | MIC (Staph. aureus SK & F 675; Table C, Methicillin Resistant): 1.6 µg/mL (≈ 1.1 µM) | MIC (Staph. aureus SK & F 675; Table E): 3.1 µg/mL (≈ 2.14 µM) | MIC [12]: 1.6 µg/mL (≈ 1.1 µM) | MIC [13]: 3.1 µg/mL (≈ 2.14 µM) | MIC [14]: 32 µg/mL (≈ 22.1 µM) | MIC [15]: 6.3 µg/mL (≈ 4.35 µM) | Propionate % (rumen in vitro model): 127 % Control and 130 % Control and 105 % Control | VFA (total of volatile fatty acids) (rumen in vitro model): 107 % Control and 97 % Control | susceptibility of K. aridum (K. aridum): resistant
